The results in this text go back to ChEMBL document CHEMBL1130649, “Rational design of a new series of mixed anti-HIV pronucleotides” (Bioorg Med Chem Lett, 1998).

The term half-life denotes the time in which the quantity being followed falls by half. Low values mean fast loss, high ones slow loss. One may read the CC50 as the concentration at which the toxic effect on the cells reaches its halfway point. A high value points to better tolerance by the cells. One may read the IC50 as the midpoint of a concentration-inhibition curve.

Bounds are passed on as bounds.

Data set [1] is described as follows: Half-life in RPMI 1640 containing 10% heat inactivated fetal calf serum culture medium at step 1. The format is ADME, Bos taurus. Particulars: cattle.
The nature of data set [2]: Half-life in total CEM cell extract at Step 1. The format is ADME, CCRF-CEM. Particulars: human.
The subject of data set [3] is CCRF-CEM. As to the kind of experiment: Compound was tested for cytotoxicity against HIV-1 in CEM/TK- cells. The format is functional. The following applies: Homo sapiens.
The test system of data set [4] is CCRF-CEM. The experiment in a line: Compound was tested for inhibitory activity against HIV-1 replication in CEM/TK- cells. In kind it is functional, cell-based. The following applies: Homo sapiens.
The subject of data set [5] is CEM-SS. The experiment in a line: Compound was tested for inhibitory activity against HIV-1 replication in CEM-SS cells. The following applies: Homo sapiens. The format is functional, cell-based.
Data set [6] has as its system CEM-SS. As to the kind of experiment: Compound was tested for cytotoxicity against HIV-1 in CEM-SS cells. The format is functional. The following applies: Homo sapiens.

With `Cc1cn([C@H]2C[C@H](N=[N+]=[N-])[C@@H](COP(=O)(OCCSC(=O)C(C)(C)C)Oc3ccc(CC(N)C(=O)O)cc3)O2)c(=O)[nH]c1=O.Cl` (stereo partly specified), the half-life in data set [1] is 86.4 h; in data set [2], 1.4 h. In addition, the figures for the CC50 in the data set on CCRF-CEM [3] and with CEM-SS [6] were 90 µM and > 90 µM, respectively. Moreover, the values for the IC50 in the data set with CCRF-CEM [4] and in the data set on CEM-SS [5] were 29 µM and 0.006 µM, respectively.

On to `Cc1cn([C@H]2C[C@H](N=[N+]=[N-])[C@@H](COP(=O)(OCCSC(=O)C(C)(C)C)Oc3ccccc3)O2)c(=O)[nH]c1=O` (stereo partly specified), for which the figures for the half-life in data set [1] and in data set [2] were 72 h and 1.2 h, respectively. Moreover, the cytotoxic concentration (CC50) in the data set on CCRF-CEM [3] and with CEM-SS [6] was > 10 µM each time. For the same compound, the figures for the IC50 with CCRF-CEM [4] and with CEM-SS [5] were 3.5 µM and 0.001 µM, respectively.

`Cc1cn([C@H]2C[C@H](N=[N+]=[N-])[C@@H](CO)O2)c(=O)[nH]c1=O` [ZIDOVUDINE]: the CC50 with CCRF-CEM [3] and in the data set with CEM-SS [6] was > 100 µM throughout. Also, the results for the IC50 in the data set with CCRF-CEM [4] and in the data set with CEM-SS [5] were > 100 µM and 0.006 µM, respectively.
